We go through one compound from patent publication US20210361628A1, “2-OXOTHIAZOLE COMPOSITIONS FOR TREATMENT OF FIBROTIC DISEASE” (Avexxin AS, priority 2018, published 2021).

For orientation: IC50 means the point on the concentration scale where inhibition reaches its midpoint. As usually defined, the inhibition is the relative decrease from the control value, in per cent. A high value points to a response far below the control.

For assay [1], the system named is α-SMA mRNA in NRK-49F cells. Description: TGF-β1 induced α-SMA mRNA expression in NRK-49F cells (qRT-PCR). The assay is classed as cell-based, rat. Particulars: 5 μM, 10 ng/ml TGF-β1 for 24 h. The procedure:
NRK-49F (normal rat kidney fibroblasts, ATCC® CRL-1570™) were maintained in DMEM with 4500 mg/L glucose, 5% FBS, L-glutamine, and gentamicin. For experiments, 3×10^5 cells/well were seeded in 6-well plates. After three days, post-confluent cells were serum starved for 24 h. They were then pre-incubated with inhibitors for 90 min, before they were treated with 10 ng/ml TGF-β1 for 24 h (mRNA-expression).
(§1) Total RNA was isolated using the RNeasy Mini Kit (Qiagen). cDNA synthesis was performed with 1 μg total RNA in 20 μl reaction of QuantiTect Reverse Transcription Kit (Qiagen). After synthesis, cDNA was diluted 1:6 with RNase-free water. qRT-PCR was performed with LightCycler 480 SYBR Green I Master (Roche), and the qRT-PCR analyses were carried out using the Lightcycler 96 system (Roche).

For assay [2], the system named is α-SMA mRNA in RMC (rat mesangial cells). Description: TGF-β1 induced α-SMA mRNA expression in RMC mesangial cell line (qRT-PCR). It is filed as cell-based. Particulars: 5 ng/ml TGF-β1 for 24 h, not significant. The procedure: (§2) RMC (rat mesangial cells, ATCC® CRL-2573™) were maintained in DMEM with 4500 mg/L glucose (Sigma), 15% FBS, L-glutamine, and 0.4 mg/ml G418. For experiments, 3×10^5 cells/well were seeded in 6-well plates. After five days, post-confluent cells were serum starved for 24 h. They were then pre-incubated with inhibitors for 90 min, before they were treated with 5 ng/ml TGF-β1 for 24 h.
as §1
On the technique in general: In qPCR the cycle at which signal appears reflects the starting amount.

The test system of assay [3] is Ptgs2 mRNA in MRC-5 cells. Description: TGF-β1 induced Ptgs2 mRNA expression in MRC-5 cells (qRT-PCR). It is filed as cell-based, human. Particulars: 5 μM, 2 ng/ml TGF-β1 for 24 h. The procedure: MRC-5 (human lung fibroblast, ATCC® CCL-171™) were maintained in MEM with 10% FBS, L-glutamine, and gentamicin. For experiments, 1×10^5 cells/well were seeded in 6-well plates. After two days, pre-confluent cells were serum starved for 24 h. They were then pre-incubated with inhibitors for 90 min, before they were treated with 2 ng/ml TGF-β1 for 24 h.
as §1

In assay [4] the test system is Ptgs2 mRNA in RMC (rat mesangial cells). Description: TGF-β1 induced Ptgs2 mRNA expression in RMC (qRT-PCR). The assay is classed as cell-based. Conditions: 5 μM, 5 ng/ml TGF-β1 for 24 h. The procedure:
as §2, §1

The test system of assay [5] is PGE2 production in human PBMC. Description: LPS-induced PGE2 production in human PBMC (EIA). It is filed as cell-based. Conditions: LPS 10 ng/mL, 72 hrs. The procedure:
Blood was recruited from healthy donors at St. Olavs Hospital HF, the Bloodbank (project approved by Regional Ethical Committee of Mid-Norway; #2016/553). Peripheral blood mononuclear cells (PBMC) were isolated using SepMate™ separation tubes with LymphoPrep density gradient medium according to the STEMCELL Technology recommendations. For experiments, 1×10^6 cells/well/1 mL RPMI medium supplemented with 5% FBS, 0.3 mg/ml glutamine and 0.1 mg/ml gentamicin with- or without inhibitor. Treatments were added 2 hours prior to the addition of lipopolysaccharides as a potent inducer of inflammation (LPS from E. coli 026:B6 γ-irradiated, Sigma-Aldrich, #L2654). Following treatment (72 hrs., 37° C., 5% CO2), the cell suspensions were centrifuged to isolate the supernatant from the cell fraction. Samples were stored at −80° C. until analysis.
PBMC supernatants were analyzed by enzyme-linked immunosorbent assay (EIA) for PGE2 (Cayman #514010), according to the manufacturers protocols. PBMC supernatants were assayed at dilutions of 1:100, except supernatants from non-LPS treated PBMC that were assayed undiluted in all assays. Supernatants were hybridized over-night incubation, enzymatic conversion of substrate were read at OD420 nm. Data were processed using a 4-parameter logistic fit model.

The subject of assay [6] is PGE2 in rat renal mesangial cells. Description: IL-1 induced PGE2 in rat renal mesangial cells (EIA). Particulars: Mesangial cell, IL-1 stimulation. It is filed as cell-based. The procedure: Cell culture of rat renal mesangial cells were isolated, characterized and cultured as previously described (Pfeilschifter eteil., e1984).84ERLINK “htmesangial cells in 24-well plates were pretreated for 90library.wiley.com/doi/full/10.1111/Compound A before stimulation in a volume of 0.5 mL with IL-1eforenM, Cell Concept GmbH) to induce PGE2Hn in a volume of 0.5 mL with ILcom/doi/full^0C, 5% CO2), the cell suspensions were centrifuged to isolate the supernatant from the cell fraction. Samples were stored at −80° C. until analysis.
Rat mesangial cell supernatants were analyzed by EIA for PGE2 (Assay Designs, BIOTREND Chemikalien GmbH), according to the manufacturers protocols. Data were calculated as pg of PGE2 per 1.3×10^5 cells which was the cell number per well.

Where [7] appears, read: read-out: estimated IC50 of PGE2 inhibition.

On to `CCCCCCCOc1ccc(OCC(=O)c2nc(C(=O)OC)cs2)cc1` [Compound A], for which the “inhibition of TGF-β1 induced expression of α-SMA mRNA” value in assay [1] was 50%. Besides, the “reduction of α-SMA mRNA expression” value in assay [2] is on record as “around 35%”. In addition, the Ptgs2 expression result in assay [3] is recorded as “reduced Ptgs2 expression”. Further, the “Ptgs2 mRNA levels” value in assay [4] is reported as “seem to reduce Ptgs2 mRNA levels”. This compound came in with a PGE2 production in assay [5] (10 μM (highest dose), LPS alone 18185+/−11200 pg/mL) of 510 ± 406 pg/mL. In addition, the figures for the IC50 in assay [5] (setting [7]) and in assay [6] (setting [7]) were 440 nM and 900 nM, respectively. In assay [6] (10 μM), this compound came in with an inhibition at 10 µM of 65%.
